Assay results taken from patent US20240374517A1, “LIPIODOL FORMULATION FOR TRANSARTERIAL CHEMOIMMUNOEMBOLIZATION” (Northwestern University, priority 2021, published 2024).

Test system: HepG2 cells
Experiment: Dox uptake and cytotoxicity in HepG2 cells
Conditions: with (20%) vs without (0%) PF127

Compound: COc1cccc2c1C(=O)c1c(O)c3c(c(O)c1C2=O)C[C@@](O)(C(=O)CO)C[C@@H]3O[C@H]1C[C@H](N)[C@H](O)[C@H](C)O1 [Dox, doxorubicin]
- cytotoxicity of Dox (CCK-8, 48 hours): not affected
- cellular uptake of Dox (Dox 10 μM, 30 and 60 minutes): not affected
